Test results reported in the supplement of paper PMC10307832.

Assays:
Assay in all cases: relative viability (nuclei count vs DMSO), 5 days (fraction); higher = more cells survive
CAL-12T = test system: CAL-12T
Method in brief: (§1)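 Relative viability equals treated-well nuclei counts divided by vehicle-well nuclei counts. Counts came from 4× images of lung cancer cell lines grown in 1536-well plates for 5 days after pin-tool dosing on the day after seeding. Dosing used one drug alone or a fixed anchor-drug dose plus five library-drug doses (not always all listed) in √10 steps, and values are medians of duplicate plates.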

LC-2-ad = test system: LC-2-ad
Method in brief: as §1

NCI-H650 = test system: NCI-H650
Method in brief: as §1

NCI-H1651 = test system: NCI-H1651
Method in brief: as §1

NCI-H727 = test system: NCI-H727
Method in brief: as §1

NCI-H596 = test system: NCI-H596
Method in brief: as §1

NCI-H520 = test system: NCI-H520
Method in brief: as §1

NCI-H1915 = test system: NCI-H1915
Method in brief: as §1

PC-3 [JPC-3] = test system: PC-3 [JPC-3]
Method in brief: as §1

NCI-H441 = test system: NCI-H441
Method in brief: as §1

H3255 = test system: H3255
Method in brief: as §1

NCI-H1944 = test system: NCI-H1944
Method in brief: as §1

NCI-H1792 = test system: NCI-H1792
Method in brief: as §1

A-427 = test system: A-427
Method in brief: as §1

NCI-H460 = test system: NCI-H460
Method in brief: as §1

BEN = test system: BEN
Method in brief: as §1

NCI-H661 = test system: NCI-H661
Method in brief: as §1

LCLC-97TM1 = test system: LCLC-97TM1
Method in brief: as §1

ABC-1 = test system: ABC-1
Method in brief: as §1

NCI-H2023 = test system: NCI-H2023
Method in brief: as §1

NCI-H2087 = test system: NCI-H2087
Method in brief: as §1

201T = test system: 201T
Method in brief: as §1

With `C=C1C(=O)O[C@@H](CCCCCCCC)[C@@H]1C(=O)O` [C-75] + C[C@]1(O)C[C@@H](c2nc(-c3ccc4ccc(-c5ccccc5)nc4c3)c3c(N)nccn32)C1 [Linsitinib] (partner 1 µM) the relative viability (CAL-12T; first compound 0.08 µM) was 0.814, the relative viability (CAL-12T; first compound 0.253 µM) was 1.02 and the relative viability (CAL-12T; first compound 0.8 µM) was 0.751. The relative viability (CAL-12T; first compound 2.53 µM) was 0.701, the relative viability (CAL-12T; first compound 8 µM) was 0.792 and the relative viability (LC-2-ad; first compound 0.08 µM) was 0.869. It also gave a relative viability (LC-2-ad; first compound 0.253 µM) of 0.865, a relative viability (LC-2-ad; first compound 0.8 µM) of 0.798 and a relative viability (LC-2-ad; first compound 8 µM) of 0.855. For the same compound, the relative viability (NCI-H650; first compound 0.08 µM) was 0.922, the relative viability (NCI-H650; first compound 0.253 µM) was 0.801 and the relative viability (NCI-H650; first compound 0.8 µM) was 0.608. For the same compound, the relative viability (NCI-H650; first compound 2.53 µM) was 0.718, the relative viability (NCI-H650; first compound 8 µM) was 0.766 and the relative viability (NCI-H1651; first compound 0.08 µM) was 1.06. The relative viability (NCI-H1651; first compound 0.253 µM) was 1.07, the relative viability (NCI-H1651; first compound 0.8 µM) was 1.08 and the relative viability (NCI-H1651; first compound 2.53 µM) was 0.975. It also gave a relative viability (NCI-H1651; first compound 8 µM) of 0.964, a relative viability (NCI-H727; first compound 0.08 µM) of 0.277 and a relative viability (NCI-H727; first compound 0.253 µM) of 0.614. For the same compound, the relative viability (NCI-H727; first compound 0.8 µM) was 0.263, the relative viability (NCI-H727; first compound 2.53 µM) was 0.183 and the relative viability (NCI-H727; first compound 8 µM) was 0.283. For the same compound, the relative viability (NCI-H596; first compound 0.08 µM) was 1.01, the relative viability (NCI-H596; first compound 0.253 µM) was 1.09 and the relative viability (NCI-H596; first compound 0.8 µM) was 1.01. The relative viability (NCI-H596; first compound 2.53 µM) was 0.911, the relative viability (NCI-H596; first compound 8 µM) was 1.03 and the relative viability (NCI-H520; first compound 0.08 µM) was 1.1. For the same compound, the relative viability (NCI-H520; first compound 0.253 µM) was 1.28, the relative viability (NCI-H520; first compound 0.8 µM) was 0.904 and the relative viability (NCI-H520; first compound 2.53 µM) was 0.906. It also gave a relative viability (NCI-H520; first compound 8 µM) of 0.825, a relative viability (NCI-H1915; first compound 0.08 µM) of 1.2 and a relative viability (NCI-H1915; first compound 0.253 µM) of 1.17. It also gave a relative viability (NCI-H1915; first compound 0.8 µM) of 0.993, a relative viability (NCI-H1915; first compound 2.53 µM) of 1.05 and a relative viability (NCI-H1915; first compound 8 µM) of 1.07. It also gave a relative viability (PC-3 [JPC-3]; first compound 0.08 µM) of 0.939, a relative viability (PC-3 [JPC-3]; first compound 0.253 µM) of 0.933 and a relative viability (PC-3 [JPC-3]; first compound 0.8 µM) of 0.951. It also gave a relative viability (PC-3 [JPC-3]; first compound 2.53 µM) of 1.02, a relative viability (PC-3 [JPC-3]; first compound 8 µM) of 1.09 and a relative viability (NCI-H441; first compound 0.08 µM) of 0.476. It also gave a relative viability (NCI-H441; first compound 0.253 µM) of 0.592, a relative viability (NCI-H441; first compound 0.8 µM) of 0.373 and a relative viability (NCI-H441; first compound 2.53 µM) of 0.48. The relative viability (NCI-H441; first compound 8 µM) was 0.442, the relative viability (H3255; first compound 0.08 µM) was 0.868 and the relative viability (H3255; first compound 0.253 µM) was 1.13. It also gave a relative viability (H3255; first compound 0.8 µM) of 1.01, a relative viability (H3255; first compound 2.53 µM) of 0.895 and a relative viability (H3255; first compound 8 µM) of 1.16. It also gave a relative viability (NCI-H1944; first compound 0.08 µM) of 1.13, a relative viability (NCI-H1944; first compound 0.253 µM) of 0.961 and a relative viability (NCI-H1944; first compound 0.8 µM) of 1.26. It also gave a relative viability (NCI-H1944; first compound 8 µM) of 1.19, a relative viability (NCI-H1792; first compound 0.08 µM) of 0.527 and a relative viability (NCI-H1792; first compound 0.253 µM) of 0.486. The relative viability (NCI-H1792; first compound 0.8 µM) was 0.471, the relative viability (NCI-H1792; first compound 2.53 µM) was 0.377 and the relative viability (NCI-H1792; first compound 8 µM) was 0.544. It also gave a relative viability (A-427; first compound 0.08 µM) of 1.16, a relative viability (A-427; first compound 0.253 µM) of 1 and a relative viability (A-427; first compound 0.8 µM) of 1.06. The relative viability (A-427; first compound 2.53 µM) was 1.07, the relative viability (A-427; first compound 8 µM) was 1.09 and the relative viability (NCI-H460; first compound 0.08 µM) was 0.718. It also gave a relative viability (NCI-H460; first compound 0.253 µM) of 0.823, a relative viability (NCI-H460; first compound 0.8 µM) of 0.72 and a relative viability (NCI-H460; first compound 8 µM) of 0.582. It also gave a relative viability (BEN; first compound 0.08 µM) of 0.847, a relative viability (BEN; first compound 0.253 µM) of 0.982 and a relative viability (BEN; first compound 0.8 µM) of 0.937. The relative viability (BEN; first compound 2.53 µM) was 0.873, the relative viability (BEN; first compound 8 µM) was 0.854 and the relative viability (NCI-H661; first compound 0.08 µM) was 0.504. It also gave a relative viability (NCI-H661; first compound 0.253 µM) of 0.571, a relative viability (NCI-H661; first compound 0.8 µM) of 0.461 and a relative viability (NCI-H661; first compound 2.53 µM) of 0.491. It also gave a relative viability (NCI-H661; first compound 8 µM) of 0.457, a relative viability (LCLC-97TM1; first compound 0.08 µM) of 0.2 and a relative viability (LCLC-97TM1; first compound 0.253 µM) of 0.309. For the same compound, the relative viability (LCLC-97TM1; first compound 0.8 µM) was 0.177, the relative viability (LCLC-97TM1; first compound 2.53 µM) was 0.105 and the relative viability (LCLC-97TM1; first compound 8 µM) was 0.18. For the same compound, the relative viability (ABC-1; first compound 0.08 µM) was 0.85, the relative viability (ABC-1; first compound 0.253 µM) was 0.854 and the relative viability (ABC-1; first compound 0.8 µM) was 0.705. The relative viability (ABC-1; first compound 2.53 µM) was 0.764, the relative viability (ABC-1; first compound 8 µM) was 0.552 and the relative viability (NCI-H2023; first compound 0.08 µM) was 0.701. It also gave a relative viability (NCI-H2023; first compound 0.253 µM) of 0.824, a relative viability (NCI-H2023; first compound 0.8 µM) of 0.473 and a relative viability (NCI-H2023; first compound 2.53 µM) of 0.658. For the same compound, the relative viability (NCI-H2023; first compound 8 µM) was 0.753, the relative viability (NCI-H2087; first compound 0.08 µM) was 1.24 and the relative viability (NCI-H2087; first compound 0.253 µM) was 0.898. For the same compound, the relative viability (NCI-H2087; first compound 0.8 µM) was 0.975, the relative viability (NCI-H2087; first compound 2.53 µM) was 0.867 and the relative viability (NCI-H2087; first compound 8 µM) was 1. The relative viability (201T; first compound 0.08 µM) was 1.01, the relative viability (201T; first compound 0.253 µM) was 1.06 and the relative viability (201T; first compound 0.8 µM) was 1.1. It also gave a relative viability (201T; first compound 2.53 µM) of 1.02 and a relative viability (201T; first compound 8 µM) of 1.1.
